Assays:
[1] = solubility in donor solution and thermodynamic activity (Table 4); assay type: physicochemical; conditions: PG
[2] = patch pre-formulation, saturated concentration in adhesive; assay type: physicochemical; conditions: DURO-TAK 87-2051 adhesive
Procedure: To each solution, 175 μL of the transdermal adhesive DURO-TAK 87-2051 (51.5 w/v %) was added, and vortexed. Then 2.0 μL of α-tocopherol and 2.5 μL of diethylene glycol monoethyl ether were added and vortexed. The visual solubility was assessed.
To this solution 4 mg of α-tocopherol in 3 mL ethyl acetate was added and 167 μL of the transdermal adhesive DURO-TAK 87-2051 (51.5 w/v %) in 7 mL ethyl acetate with 6 μL diethylene glycol monoethyl ether was also added.
Each solution (3×3 cm) was cast onto the backing (3M™ Scotchpak™ Polyester Backing Film Laminate 9730, UK) to determine the clarity, and the saturation limit of the test agents in the adhesive mixtures.

physchem = assay type: physicochemical; conditions: % Recovery
Procedure: To validate the method of test agent recovery from the skin, solutions (1.0 mg/mL) of each vitamin D analogue were prepared in 100% PG. The precise concentrations in these samples were analysed by HPLC method described above. To assess the chemical stability of each test agent in the donor solutions used in the Franz cell experiments, 1.0 mg/mL of the samples prepared in 100% PG were incubated in a water bath at 37° C. for 24 h. In addition, to understand the chemical stability of each test agent in the extraction solvents used in the skin deposition studies, 1 mL of the drug sample in 100% PG was added into 10 mL of extraction fluid (MeOH for cholecalciferol, cholecalciferol phosphate acid, and MeOH:water, 90:10 for cholecalciferol phosphate disodium salt). Samples in PG (n=3) and samples in PG with the extraction fluid (n=3) were left in the water bath overnight at 37° C. and the sample concentration was analysed by the HPLC method described above. To assess whether the HPLC fluid had been impacted by any proteins that had leaked out of the skin, PG:water, 80:20 was added to donor and receiver chambers of porcine skin loaded Franz cells (n=3). A 5 mL sample of the receiver fluid was collected, and 25 μL of each test solution was added to this fluid and diluted to MeOH (1:1) and analysed by the HPLC method described previously. To verify the percentage of drug that could be recovered from the skin tissue, the skin sections were dermatomed (1 mm thickness) (n=3). The test solutions were spiked (50 μL) into a sample bottle containing the chopped dermatomed skin tissue. The samples containing the spiked drugs were left for 1 h for the drugs to absorb into the tissues. After the 1 h incubation period, 5 mL of extraction fluid (MeOH for cholecalciferol, cholecalciferol phosphate acid, and MeOH:water, 90:10 for cholecalciferol phosphate disodium salt) was added into each piece of the dermatomed skin tissue, then incubated in a shaking water bath for 1 h. The solutions were then tissue lysed by a tissue lyser for 40 min and homogenised by Ultra Turrax for 1 min and filtered using 0.45 μm syringe filters, centrifuged for 10 min at 13,000 rpm, and analysed by the HPLC method described above. In terms of cholecalciferol phosphate acid, after 1 h incubation and adding 5 mL extraction fluid, immediately the solutions with skin tissues were tissue lysed by a tissue lyser for 15 min. The solutions were then centrifuged for 10 min at 13,000 rpm and the supernatants were analysed by the HPLC method described above.

[3] = skin permeation and deposition, automated Franz diffusion cell (Example 5); assay type: in vitro ADME; conditions: PG formulation
Procedure: For the final formulation, 61.5 mg of cholecalciferol phosphate acid in 4.1 mL hexane was added into 1.435 mL DURO-TAK 87-2051 (51.5 w/v %) with 16.4 μL α-tocopherol and 20.5 μL diethylene glycol monoethyl ether. Likewise, 120 mg of cholecalciferol phosphate disodium salt in 35.2 mL MeOH:water (10:1) was added to 1.336 mL of DURO-TAK 87-2051 (51.5 w/v %) in 56 mL ethyl acetate with 32 mg of α-tocopherol and 48 μL diethylene glycol monoethyl ether. Each formulation was spread evenly on the 10×10 cm patch tray and left overnight to dry completely. Following the complete drying of the solvents, the adhesive layer was covered by the M3 Release layer (SCOTCHPAK 9755, UK), compressed, and then cut using a 34 mm circular manual die cutter (SCP Super Cutting Press, UK).
Subsequently, 1 mL aliquots were applied to the skin.
The automated Franz diffusion cell was used to investigate the permeation of cholecalciferol, cholecalciferol phosphate salt and cholecalciferol phosphate acid through porcine skin. Fresh white adult porcine ears were obtained from a local butcher (Ginger Pig, UK). Any damaged ears were discarded. The ears were removed from the carcass after hair removal. […] The collected receiver fluid was analysed by HPLC methods described previously.
At the end of the transport studies, the Franz cells were dismantled, and the donor solution was collected into bottles containing 10 mL of extraction fluid; MeOH for cholecalciferol, cholecalciferol phosphate acid and MeOH:water (90:10) for cholecalciferol phosphate salt, by wiping the surface of the skin and the inside of the donor compartment with two wet and then two dry cotton buds. […] Each collection was analysed by the HPLC method described above. Thus, the amount of each test agent on the surface of the skin, deposited in the skin, and passed into the receiver fluid was determined so that % mass recovery per cm^2 per skin could be calculated and drug deposition profiles could be obtained.

[4] = chemical stability on storage over 4 weeks; assay type: physicochemical
Procedure: The chemical stability of cholecalciferol phosphate acid/disodium salt was assessed in three different conditions over a 4-week period. Aliquots of 2 mg for each sample was stored at room temperature, 4° C., and −20° C. in a glass bottle covered with foil. A 20 mL sample of MeOH and MeOH:water (90:10) was added to cholecalciferol phosphate acid and cholecalciferol phosphate disodium salt, and the concentration and purity were assessed every week by the HPLC method described previously. The peak area was used to calculate sample concentration and the gradient of the data points being used to calculate the degradation rate.

C=C1CC[C@H](OP(=O)(O)O)C/C1=C/C=C1\CCC[C@@]2(C)C1CC[C@@H]2[C@H](C)CCCC(C)C (stereo in doubt) [Cholecalciferol phosphate acid, cholecalciferol phosphate acid]
Solubility in PG [1]: 4690 µg/mL | saturated concentration in patch formulation (highest loading without precipitation) [2]: 5.02 w/w % | recovery at 0.091 mg/mL (physchem; chemical stability with extraction fluid): 92.2 ± 2.26% | recovery at 24 h, 1 mg/mL (physchem; chemical stability without extraction fluid): 88.5 ± 3.35% | fold higher transdermal permeation through the skin compared to cholecalciferol [3]: about 9.34 fold | loss of the original compound over 4 weeks ([4]; 4° C.): 9.98% | reduction of purity over 4 weeks ([4]; 4° C.): 27.18% | loss of the original compound over 4 weeks ([4]; room temperature): 77.15% | reduction of purity over 4 weeks ([4]; room temperature): 72.2% | reduction of purity over 4 weeks ([4]; −20° C.): 1.03%

Reference: US12473310B2, “Vitamin D3 phosphate and pharmaceutically acceptable salts thereof, pharmaceutical compositions comprising the compound and methods for preparing the compound” (King's College London, priority 2020, dated 2025)
